According to article PMC6680806, “Preparation of Retinoyl-Flavonolignan Hybrids and Their Antioxidant Properties” (Antioxidants, 2019):
Where “and” joins values, the source holds several entries; their conditions need not be identical. Equal values may be shown once.

Legend:
DPPH radical scavenging = type: biochemical; settings: 20 µM DPPH in methanol, 30 min, 25 °C, mean ± standard error
Protocol: The radical scavenging activity of the prepared conjugates, their parent compounds, their equimolar mixtures and retinol was evaluated as their capacity to scavenge 1,1-diphenyl-2-picrylhydrazyl radicals (DPPH, Sigma-Aldrich, Prague, Czech Republic), as described previously with minor modifications. Briefly, 15 µL of the tested substance (final concentration 0–20 mM in DMSO) was mixed with 285 µL of a freshly prepared methanolic DPPH solution (final concentration 20 µM) in a microtiter plate well. After 30 min at 25 °C, the absorbance at 517 nm was measured. The activity was expressed as the concentration of the compound required for reducing the absorbance to 50% (IC50) of its initial value.

[1] = Ferric reducing antioxidant power (FRAP); type: biochemical; settings: mean ± standard error
Protocol: (§1) Ferric reducing antioxidant power (FRAP) and cupric reducing antioxidant capacity (CUPRAC) were measured using kits from Bioquochem (Llanera-Asturias, Spain) according to the manufacturer´s instructions and expressed as trolox equivalents (TE). To determine oxygen radical absorption capacity (ORAC), 73 µL of fluorescein (1.8 mg/L) solution in phosphate buffered saline (PBS, pH 7.4) was mixed with 2 µL of the samples (0–20 µM) in the wells of a 96-well plate. After 15 min incubation (37 °C), 25 µL of freshly prepared 2,2′-azo-bis(2-amidinopropane) dihydrochloride (AAPH, 60 mg/mL) was added to each well except for the negative control, where AAPH was replaced for PBS. The fluorescence (ex./em., 485/535 nm) was recorded immediately and for the next 2 h with the measurement step for 5 min using a microplate reader (SpectraMax i3 Multi-Mode Detection Platform, Molecular Devices, Wokingham, UK).
(§2) The oxidations in living organism caused by free radicals are usually undesirable processes damaging such important biomolecules as DNA, proteins and lipids. The application of antioxidants is one of the most straightforward means to protect these biomolecules from oxidative stress. Many assays are available for determination of antioxidant potential in vitro. These assays are based on the reduction of stable radicals (DPPH), on the competitive bleaching of a probe (ORAC) or on the reduction of iron ions (CUPRAC, FRAP). CUPRAC test is very similar to FRAP assay but is based on the reduction of Cu^2+ in a neutral pH, while FRAP test is based on Fe^3+ in acidic pH. As each assay suffers from some limitations, a set of antioxidant tests was used here to combine more parameters.

[2] = Cupric reducing antioxidant capacity (CUPRAC); type: biochemical; settings: mean ± standard error; values marked f: measurement disturbed by the formation of a precipitate
Protocol: as §1, §2

[3] = Oxygen radical absorption capacity (ORAC); type: biochemical; settings: fluorescein/AAPH, PBS pH 7.4, 37 °C; mean ± standard error
Protocol: as §1
(§3) The main disadvantage of DPPH scavenging assay is the use of an unnatural radical. Such methods based on competitive probe reactions or indirect methods based on persistent radicals should only be used for preliminary screening purposes. Thus, to better characterize the potential of the obtained conjugates in terms of their biological activity, a series of simple, rapid, sensitive and reproducible biochemical antioxidant assays including FRAP, CUPRAC and ORAC [38] and a more relevant cellular antioxidant activity (CAA [37]) was measured (Table 2). […] Therefore, in this study, we compared two methods with the same mechanism of action: ORAC assay was performed as a classical biochemical method presenting the ability of tested compounds to quench peroxyl radicals generated from AAPH to protect fluorescein from oxidation. This assay serves better as a physical description of the tested compounds [37]. To reflect biological aspect, CAA was measured using the liver carcinoma HepG2 cell line where the compound must enter the cell to fulfil its role as an antioxidant. The CAA assay partially includes the bioavailability, aspects of uptake and metabolism.

HepG2 cell line = experiment: Cellular antioxidant activity (CAA); type: cell-based; settings: Homo sapiens; HepG2 cells, DCFH-DA/AAPH; > = no activity noted at the highest concentration tested
Protocol: For cellular antioxidant activity (CAA) assay, the HepG2 cell line (ATCC, CCL-23TM, USA) was cultivated in Eagle’s Minimum Essential Medium (Sigma-Aldrich, USA) supplemented with 10% of foetal bovine serum, 2 mM L-glutamine and 1× Antibiotic Antimycotic Solution (Sigma-Aldrich, St. Louis, MO, USA) in a CO2 incubator (5% CO2, 37 °C, Thermo Fisher Scientific, Waltham, MA, USA) and passaged 2×/week using trypsin-EDTA solution. For the experiments, 100 µL of the cells (1 × 10^6 cells/mL, Cellometer Auto T4 Bright Field Cell Counter, Nexcelom Bioscience, Lawrence, MA, USA) were split into 96-well plates. After 24 h, the cells were washed 3× with PBS (MultiFlo Multi-Mode Dispenser, BioTek, USA) and Dulbecco’s Modified Eagle’s Medium (Sigma-Aldrich, St. Louis, MO, USA) supplemented with the 2′,7′-dichlorodihydrofluorescein diacetate (DCFH-DA, 0.0125 mg/mL) was added to each well together with the tested samples in the concentration range 0–500 µM. After incubation (1 h, CO2 incubator, 37 °C), the medium was manually replaced for AAPH solution (0.16 mg/mL) and the fluorescence (ex./em. 485/540 nm) was recorded immediately for 2 h with 5 min steps.
as §3

[4] = Stability of sample during ORAC and CAA measurement; type: physicochemical
Protocol: Dose-dependent curves were obtained in both ORAC and CAA assay for single compounds resulting in IC50 determination (Table 2). In contrast, no anti-oxidant activity of the conjugates was detected in liver cells in all the concentration range tested up to 50 or 500 µM. In fact, such a large concentration is not expectable in plasma.

[5] = parent compound alone, read-out: DPPH radical scavenging activity (IC50), parent compound
[6] = covalent retinoyl conjugate, read-out: DPPH radical scavenging activity (IC50), conjugate with retinoic acid

Row | IC50 (DPPH radical scavenging; [5]) | IC50 [3] [µM] | IC50 (HepG2 cell line) [µM] | IC50 (DPPH radical scavenging; [6]) [µM] | Stability during ORAC and CAA measurement [4] | Compound | FRAP (ferric-reducing antioxidant potential, trolox equivalents) [1] | CUPRAC (cupric reducing antioxidant capacity) [2]
1 | 745 µM and 1480 µM | 13 ± 2 | 460 ± 211 | – | – | CC1=C(/C=C/C(C)=C/C=C/C(C)=C/C(=O)O)C(C)(C)CCC1 [compound 2, Retinoic acid] | 0.62 ± 0.02 TE | 0.10 ± 0.02^f TE
2 | 659 ± 29 µM | 8 ± 0.3 | 6.8 ± 0.5 | – | – | COc1cc([C@@H]2Oc3cc([C@H]4Oc5cc(O)cc(O)c5C(=O)[C@@H]4O)ccc3O[C@H]2CO)ccc1O [3b, silybin B] | 0.268 ± 0.009 TE | 0.16 ± 0.02 TE
3 | 818 ± 22 µM | 8.5 ± 0.4 | 10 ± 0.7 | – | – | COc1cc([C@H]2Oc3cc([C@H]4Oc5cc(O)cc(O)c5C(=O)[C@@H]4O)ccc3O[C@@H]2CO)ccc1O [3a, silybin A] | 0.278 ± 0.005 TE | 0.20 ± 0.00 TE
4 | – | 174 ± 7 | > 500 | 2360 | – | COc1cc([C@H]2Oc3ccc([C@H]4Oc5cc(OC(=O)/C=C(C)/C=C/C=C(C)/C=C/C6=C(C)CCCC6(C)C)cc(O)c5C(=O)[C@@H]4O)cc3O[C@@H]2CO)ccc1O [8a, Isosilybin A-7-O-retinoate] | 0.022 ± 0.003 *^,# TE | 0.11 ± 0.01^f TE
5 | 783 ± 9 µM | 4.3 ± 1.1 | > 100 | – | – | COc1cc([C@H]2Oc3ccc([C@H]4Oc5cc(O)cc(O)c5C(=O)[C@@H]4O)cc3O[C@@H]2CO)ccc1O [5a, isosilybin A] | 0.280 ± 0.006 TE | 0.16 ± 0.02 TE
6 | 1480 µM and 745 µM | 169 ± 12 | 1270 ± 147 | – | – | CC1=C(/C=C/C(C)=C/C=C/C(C)=C/CO)C(C)(C)CCC1 [compound 1, Retinol] | 1.76 ± 0.04 TE | 0.09 ± 0.01^f TE
7 | – | 130 ± 7 | > 500 | 734 | – | COc1cc(C2Oc3cc(-c4oc5cc(O)cc(O)c5c(=O)c4OC(=O)/C=C(C)/C=C/C=C(C)/C=C/C4=C(C)CCCC4(C)C)ccc3OC2CO)ccc1O (stereo not drawn) [compound 7, 2,3-Dehydrosilybin AB-3-O-retinoate] | 0.034 ± 0.005 *^,# TE | 0.07 ± 0.02^f TE
8 | 19.2 ± 0.3 µM | 9.6 ± 0.4 | 10.9 ± 0.5 | – | – | COc1cc(C2Oc3cc(-c4oc5cc(O)cc(O)c5c(=O)c4O)ccc3OC2CO)ccc1O (stereo not drawn) [compound 4, 2,3-dehydrosilybin] | 4.06 ± 0.05 TE | 0.25 ± 0.00 TE
9 | – | 230 ± 8 | > 500 | 540 | – | COc1cc([C@@H]2Oc3cc([C@H]4Oc5cc(OC(=O)/C=C(C)/C=C/C=C(C)/C=C/C6=C(C)CCCC6(C)C)cc(O)c5C(=O)[C@@H]4O)ccc3O[C@H]2CO)ccc1O [6b, Silybin B-7-O-retinoate] | 0.010 ± 0.001 *^,# TE | 0.04 ± 0.01^f TE
10 | – | – | > 50 | 379 | unstable and decomposed | COc1cc([C@H]2Oc3cc([C@H]4Oc5cc(OC(=O)/C=C(C)/C=C/C=C(C)/C=C/C6=C(C)CCCC6(C)C)cc(O)c5C(=O)[C@@H]4O)ccc3O[C@@H]2CO)ccc1O [6a, Silybin A-7-O-retinoate] | 0.038 ± 0.002 *^,# TE | 0.21 ± 0.02 TE
11 | – | 91 ± 4 | > 500 | 666 | – | COc1cc(C2Oc3cc([C@H]4Oc5cc(OC(=O)/C=C(C)/C=C/C=C(C)/C=C/C6=C(C)CCCC6(C)C)cc(O)c5C(=O)[C@@H]4O)ccc3OC2CO)ccc1O (stereo partly drawn) [6ab, Silybin-7-O-retinoate] | 0.03 ± 0.02 *^,# TE | 0.22 ± 0.01 TE
12 | 472 ± 16 µM | 7.8 ± 0.7 | 11.8 ± 0.3 | – | – | COc1cc(C2Oc3cc([C@H]4Oc5cc(O)cc(O)c5C(=O)[C@@H]4O)ccc3OC2CO)ccc1O (stereo partly drawn) [3ab, Silybin] | 0.335 ± 0.006 TE | 0.17 ± 0.00 TE
